According to US20240125807A1, “METHOD FOR MEASURING RELATIVE fu RATIO BY DYNAMIC [sequence]” (Chugai Seiyaku Kabushiki Kaisha, priority 2020, published 2024):
Read-outs that look alike come from different tables or passages of the source.

What was measured:
[1] = rat and human, 24 h, 0.2 μmol/L
[2] = fu by static analysis (versus buffer), rat serum (Reference Example); conditions: Reference Examples 4 to 13: 10% serum versus buffer, 24 h
[3] = Relative fu ratio rat/human, equilibrium dialysis serum versus serum, dynamic analysis; conditions: Examples 4 to 13: 10% serum, analyte 0.2 μmol/L, 0.5-24 h
[4] = in vitro; conditions: human, serum
[5] = in vitro; conditions: rat
[6] = cited from earlier work
[7] = fu ratio (serum/microsome) using fu value (microsome) and fu value (serum)=0.01 based on the FDA guidance, Reference Examples 21 to 27; format: in vitro ADME, human; conditions: fu value (microsome) of Reference Examples 14 to 20 and fu value (serum)=0.01 per FDA guidance (Reference Examples 21 to 27)
[8] = target: T1, CYP3A4 (Homo sapiens, UniProt P08684); experiment: Inhibition constant Ki in human hepatic microsome with midazolam as CYP3A4 probe substrate
T1 sequence (P08684 whole entry): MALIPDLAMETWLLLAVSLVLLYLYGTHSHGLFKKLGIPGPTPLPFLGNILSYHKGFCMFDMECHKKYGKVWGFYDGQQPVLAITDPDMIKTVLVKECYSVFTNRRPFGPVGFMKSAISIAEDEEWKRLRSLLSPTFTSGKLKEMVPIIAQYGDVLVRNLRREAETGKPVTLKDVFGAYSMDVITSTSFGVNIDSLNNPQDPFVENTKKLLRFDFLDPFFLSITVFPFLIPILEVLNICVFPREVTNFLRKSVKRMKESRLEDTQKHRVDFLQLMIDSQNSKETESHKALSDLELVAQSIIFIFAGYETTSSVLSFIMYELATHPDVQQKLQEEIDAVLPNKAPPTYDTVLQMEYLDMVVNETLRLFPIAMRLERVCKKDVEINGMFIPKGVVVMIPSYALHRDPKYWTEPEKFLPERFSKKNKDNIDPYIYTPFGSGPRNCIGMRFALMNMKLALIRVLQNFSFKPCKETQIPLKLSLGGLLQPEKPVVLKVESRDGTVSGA
Protocol: For predicting the DDI risk, midazolam that is a CYP3A4 substrate was used as a probe compound to determine an inhibition constant Ki value of each compound in human hepatic microsome.
To 5 μL of a solution of midazolam dissolved therein at 50 mmol/L was added 70 μL of a 50% acetonitrile solution to obtain 75 μL in total of a solution. […] To 25 mg of commercially available β-NADPH (Wako Pure Chemical Industries, Ltd.) was added 3000 μL of a phosphate buffer at 0.1 mol/L to obtain a NADPH solution (10 mmol/L). The prepared solutions were mixed in the following order to obtain an inhibition reaction solution (100 μL in total), and the solution was reacted for 5 minutes with stirring at 37° C. where the time immediately after addition of the NADPH solution was defined as 0 minute after the start of the reaction.
The thus-obtained sample was used as a LCMS measurement solution. Two sets of the LCMS measurement solution were prepared, with one intended for quantitative determination of 1-hydroxymidazolam generated by metabolic reaction and the other intended for measurement of the actual concentration of a compound to be measured (inhibitor). Each set was used for LCMS quantitative analysis.
Therefore, the determined IC50 was directly used as Ki value.

[9] = serum, 24 h, 0.2 μmol/L
[10] = fu ratio (serum/microsome) from fu values by static analysis (versus buffer), Reference Examples 14 to 20; format: in vitro ADME, human; conditions: from fu values of Reference Examples 14 to 20 (static analysis versus buffer)
[11] = target: T1, CYP3A4; parameters: unit not given beside the values; conditions: in vivo, cited from earlier work
[12] = serum, 24 h, 0.2 μmol/L; remark: listed apart in the source
[13] = fu value (microsome) by static analysis (versus buffer), Reference Examples 14 to 20; format: in vitro ADME; conditions: human, human hepatic microsomes 0.1 mg/mL dialysed against buffer, microsome 0.1 mg/mL
[14] = Relative fu ratio (serum/microsome), human serum and human hepatic microsome, dynamic analysis; conditions: human serum fu corrected to 1/1, human hepatic microsome 0.1 mg/mL
[15] = fu by static analysis (versus buffer), human serum (Reference Example); conditions: 24 h, 10% serum fu corrected to serum concentration 1/1
[16] = target: T1, CYP3A4; conditions: read-out: Km value; midazolam as CYP3A4 substrate, suggested in the literature; cited from earlier work

For `CNC(=O)c1ccc(N2C(=S)N(c3cnc(C#N)c(C(F)(F)F)c3)C(=O)C23CCC3)cc1F` [Apalutamide], the “fu ratio (rat/human)” value [1] was 3.36, the “fu ratio (rat/human)” value [2] was 2.30 and the “fu ratio (rat/human)” value [3] was 2.50. It also gave a fraction unbound at 24 h, 0.2 μmol/L [4] of 0.03 and a fraction unbound at 24 h, 0.2 μmol/L [5] of 0.104.
For `O=C1CCc2ccc(OCCCCN3CCN(c4cccc(Cl)c4Cl)CC3)cc2N1` [Aripiprazole], the fraction unbound ([4]; Human (fu value)) is listed as 0.002, the fraction unbound ([4]; Human serum (serum concentration: 1/1) (fu value)) is listed as 0.0021 and the Cmax ([6]; Dose 15 mg) is listed as 242 ng/mL. For the same compound, the fraction unbound ([5]; serum) was 0.003.
Work on `C=C[C@@H]1C[C@]1(NC(=O)[C@@H]1C[C@@H](Oc2ncc(OC)c3ccc(Cl)cc23)CN1C(=O)[C@@H](NC(=O)OC(C)(C)C)C(C)(C)C)C(=O)NS(=O)(=O)C1CC1` [Asunaprevir] yielded a fraction unbound at 24 h, 0.2 μmol/L [4] of 0.005 and a fraction unbound at 24 h, 0.2 μmol/L [5] of 0.008.
Compound `COc1ccc2c(c1)[C@@H]1C[C@]1(C(=O)N1[C@@H]3CC[C@H]1CN(C)C3)Cn1c-2c(C2CCCCC2)c2ccc(C(=O)NS(=O)(=O)N(C)C)cc21` [Beclabuvir] has a fraction unbound at 24 h, 0.2 μmol/L [4] of 0.007 and a fraction unbound at 24 h, 0.2 μmol/L ([5]; serum) of 0.008.
In the case of `O=C(O)c1ccc(-n2nc(-c3ccccc3O)nc2-c2ccccc2O)cc1` [Deferasirox], the “fu ratio (serum/microsome)” value [7] is given as 0.0099, the Cmax ([6]; Dose 210 mg) is given as 40327 ng/mL and the Ki [8] is given as no less than 49 µM. The Ki value ([8]; microsomes) was “maximum addition concentration”, the “Human (fu value)” value [9] was 0.005 and the “fu ratio (serum/microsome)” value [10] was 0.0046. For the same compound, the fraction unbound at 24 h, 0.2 μmol/L ([5]; serum) was 0.02 and the “AUCR (observed value)” value ([11]; 210 mg) was 0.90.
`C[C@]12C=CC(=O)N[C@@H]1CC[C@@H]1[C@@H]2CC[C@]2(C)[C@@H](C(=O)Nc3cc(C(F)(F)F)ccc3C(F)(F)F)CC[C@@H]12` [Dutasteride] gave a fraction unbound at 24 h, 0.2 μmol/L [4] of 0.006 and a fraction unbound at 24 h, 0.2 μmol/L ([5]; serum) of 0.009.
In the case of `COC(=O)N[C@H](C(=O)N1CCC[C@H]1c1nc(-c2ccc3c(c2)O[C@@H](c2ccccc2)n2c-3cc3cc(-c4c[nH]c([C@@H]5CCCN5C(=O)[C@@H](NC(=O)OC)C(C)C)n4)ccc32)c[nH]1)C(C)C` [Elbasvir], the “Rat (fu value)” value [12] is reported as 0.001 and the “Human (fu value)” value [9] is reported as 0.001.
`C=CC(=O)N1CCC[C@@H](n2nc(-c3ccc(Oc4ccccc4)cc3)c3c(N)ncnc32)C1` [Ibrutinib] showed a fraction unbound at 24 h, 0.2 μmol/L [4] of 0.019 and a fraction unbound at 24 h, 0.2 μmol/L ([5]; serum) of 0.007.
In the case of `CCC(C)n1ncn(-c2ccc(N3CCN(c4ccc(OCC5COC(Cn6cncn6)(c6ccc(Cl)cc6Cl)O5)cc4)CC3)cc2)c1=O` (stereo not shown) [Itraconazole], the fraction unbound at 24 h, 1 μmol/L [13] is listed as 0.77, the Cmax ([6]; Dose 50 mg) is listed as 14.11 ng/mL and the Cmax ([6]; Dose 200 mg) is listed as 163.93 ng/mL. For the same compound, the Cmax ([6]; Dose 400 mg) was 317.52 ng/mL, the “AUCR (observed value)” value ([11]; 50 mg) was 1.91 and the “AUCR (observed value)” value ([11]; 200 mg) was 5.05. For the same compound, the “AUCR (observed value)” value ([11]; 400 mg) was 5.07.
In the case of `CC(=O)N1CCN(c2ccc(OCC3COC(Cn4ccnc4)(c4ccc(Cl)cc4Cl)O3)cc2)CC1` (stereo not shown) [Ketoconazole], the Cmax ([6]; Dose 200 mg) is given as 4681.36 ng/mL and the Cmax ([6]; Dose 400 mg) is given as 5877.28 ng/mL.
`CS(=O)(=O)CCNCc1ccc(-c2ccc3ncnc(Nc4ccc(OCc5cccc(F)c5)c(Cl)c4)c3c2)o1` [Lapatinib] showed a fraction unbound at 24 h, 1 μmol/L [13] of 0.05.
In the case of `O=C(NC1CCN(CCCCC2(C(=O)NCC(F)(F)F)c3ccccc3-c3ccccc32)CC1)c1ccccc1-c1ccc(C(F)(F)F)cc1` [Lomitapide], the “Human (fu value)” value [9] is reported as 0.002 and the fraction unbound at 24 h, 0.2 μmol/L ([5]; serum) is reported as 0.006.
In the case of `c1ccc(Cc2nn[nH]n2)c(COc2ccc(OCc3ccc4ccccc4n3)cc2)c1` [RG12525], the “fu ratio (serum/microsome)” value [7] is listed as 0.0129, the fraction unbound at 24 h, 1 μmol/L [13] is listed as 0.77 and the Cmax ([6]; Dose 100 mg) is listed as 1482 ng/mL. For the same compound, the Cmax ([6]; Dose 600 mg) was 8186 ng/mL, the Ki [8] was 1.49 µM and the “fu ratio (serum/microsome)” value [10] was 0.0005. The “AUCR (observed value)” value ([11]; 100 mg) was 1.09 and the “AUCR (observed value)” value ([11]; 600 mg) was 1.01.
For `CCCSc1nc(N[C@@H]2C[C@H]2c2ccc(F)c(F)c2)c2nnn([C@@H]3C[C@H](OCCO)[C@@H](O)[C@H]3O)c2n1` [Tikaglera], the “fu ratio (serum/microsome)” value [7] was 0.0207, the “fu ratio (scrum/microsome)” value [14] was 0.0103 and the “Human serum (serum concentration: 1/1) (fu value)” value [15] was 0.0032. The Cmax ([6]; Dose 90 mg) was 403 ng/mL, the Ki value ([8]; human hepatic microsome, midazolam 0.33 μmol/L, IC50 used as Ki) was “maximum addition concentration” and the Ki ([8]; read-out: Ki value, human hepatic microsome, midazolam 0.33 μmol/L as CYP3A4 substrate, IC50 directly used as Ki) was no less than 87 µM. The “fu ratio (serum/microsome)” value [10] was 0.0065.
In the case of `Cc1ncc2n1-c1ccc(Cl)cc1C(c1ccccc1F)=NC2` [midazolam], the Km [16] is given as 2.06 µM.
